# Test results: patent US12497349B2, “Salts of tranexamic acid esters” (Actera Ingredients, Inc., priority 2019, dated 2025)
# Assay: Viscosity by vertical falling sphere method
# Format: physicochemical
# Settings: room temperature 25±1° C.; 1.0 and 5.0 wt. % in water; compared to the tranexamate hydrochloride salt; FIG. 2
# Procedure: Compositions of tranexamate ester salts with differing counter-ions as shown in Table 5 were prepared as follows. 1) Ingredients A to C were combined based on the weight ratios in Table 5. 2) The mixture was heated with stirring to 80±5° C. until all solids were dissolved. 3) The homogeneous mixture was removed from the heat and allowed to cool to room temperature (25±5° C.).
# The viscosity at room temperature (25±1° C.) of Examples 13-16 was determined by the method of the vertical falling sphere using the equation μ=[2 (ρs−ρl) g a^2 ]/9v, where μ=dynamic viscosity, ρs=density of the sphere, ρl=density of the test material (Examples 13-16), g=standard gravity, a=radius of the sphere, and v=velocity of the sphere.
# Results are represented in FIG. 2. […] Additionally, the tranexamate sulfonate salt yielded stable and homogeneous compositions not observed with the tranexamate hydrochloride salt (see Examples 1 to 12).
structure (smiles),measurement,value
"CCCCCCCCCCCCCCCCOC(=O)C1CCC(CN)CC1.CS(=O)(=O)O (stereo not shown) [tranexamate sulfonate salt, Cetyl tranexamate mesylate]",Viscosity,higher viscosity with increasing concentration
